Values joined by “and” are separate entries in the source; they are usually repeats but may differ in a detail not shown here. Equal entries are not always repeated. Toxic doses and inconclusive results are not listed.

The subject of the experiment is L1210 leukemia ip in BDF1 mice, survival T/C. Briefly: NCI In Vivo Anticancer Drug Screen. Data for tumor model L1210 Leukemia (intraperitoneal) in B6D2F1 (BDF1) mice. The conditions noted are these: higher = longer survival. An outline of the steps: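 Antitumor effect is assessed in tumor-bearing animals. Survival in the compound arm is compared with a vehicle-dosed control arm and expressed as their quotient.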

Where [1] appears, read: endpoint: mean survival time, dose: 75.0 mg/kg/injection, schedule: Q01DX001 (ip), vehicle: saline.

In the case of `COc1cc(NS(C)(=O)=O)ccc1Nc1c2ccccc2nc2ccccc12`, the T/C (endpoint: mean survival time, dose: 0.25 mg/kg/injection, schedule: Q03HX008 (ip), vehicle: other) was 120 % of control; the T/C (endpoint: mean survival time, dose: 0.38 mg/kg/injection, schedule: Q01DX009 (ip), vehicle: saline with Tween-80) was 185 % of control; the T/C (endpoint: mean survival time, dose: 0.75 mg/kg/injection, schedule: Q01DX009 (sc), vehicle: saline) is 118 % of control; the T/C (endpoint: mean survival time, dose: 1.0 mg/kg/injection, schedule: Q01DX009 (ip), vehicle: Klucel (hydroxypropylcellulose) (HPC)) was 160 % of control; the T/C (endpoint: mean survival time, dose: 1.25 mg/kg/injection, schedule: Q01DX009 (sc), vehicle: saline) was 112 % of control; the T/C (endpoint: mean survival time, dose: 1.35 mg/kg/injection, schedule: Q01DX009 (ip), vehicle: acetone) is 151 % of control. In addition, the T/C reads like this: (endpoint: mean survival time, dose: 1.5 mg/kg/injection, schedule: Q01DX009 (sc), vehicle: saline) 113 % of control; (endpoint: mean survival time, dose: 1.56 mg/kg/injection, schedule: Q01DX009 (ip), vehicle: saline with Tween-80) 236 % of control; (endpoint: mean survival time, dose: 1.8 mg/kg/injection, schedule: Q01DX009 (ip), vehicle: water) 150 % of control; (endpoint: mean survival time, dose: 1.9 mg/kg/injection, schedule: Q01DX001 (ip), vehicle: other) 116 % of control; (endpoint: mean survival time, dose: 2.0 mg/kg/injection, schedule: Q03HX008 (ip), vehicle: other) 203 % of control; (endpoint: mean survival time, dose: 2.05 mg/kg/injection, schedule: Q01DX009 (ip), vehicle: Klucel (hydroxypropylcellulose) (HPC)) 155 % of control. Moreover, the T/C (endpoint: mean survival time, dose: 2.05 mg/kg/injection, schedule: Q01DX009 (ip), vehicle: acetone) is 187 % of control; the T/C (endpoint: mean survival time, dose: 2.5 mg/kg/injection, schedule: Q01DX009 (sc), vehicle: saline) is 110 % of control and 121 % of control; the T/C (endpoint: mean survival time, dose: 3.0 mg/kg/injection, schedule: Q01DX009 (ip), vehicle: Klucel (hydroxypropylcellulose) (HPC)) was 176 % of control; the T/C (endpoint: mean survival time, dose: 3.0 mg/kg/injection, schedule: Q01DX009 (ip), vehicle: water) was 174 % of control; the T/C (endpoint: mean survival time, dose: 3.0 mg/kg/injection, schedule: Q01DX009 (sc), vehicle: saline) was 114 % of control; the T/C (endpoint: mean survival time, dose: 3.07 mg/kg/injection, schedule: Q01DX009 (ip), vehicle: Klucel (hydroxypropylcellulose) (HPC)) is 157 % of control. The T/C by setting is: (endpoint: mean survival time, dose: 3.07 mg/kg/injection, schedule: Q01DX009 (ip), vehicle: acetone) 188 % of control; (endpoint: mean survival time, dose: 3.12 mg/kg/injection, schedule: Q01DX009 (ip), vehicle: acetone) 188 % of control; (endpoint: mean survival time, dose: 3.12 mg/kg/injection, schedule: Q01DX009 (ip), vehicle: saline with Tween-80) 178 % of control and 216 % of control; (endpoint: mean survival time, dose: 3.75 mg/kg/injection, schedule: Q01DX001 (ip), vehicle: other) 124 % of control; (endpoint: mean survival time, dose: 4.0 mg/kg/injection, schedule: Q01DX009 (ip), vehicle: Klucel (hydroxypropylcellulose) (HPC)) 154 % of control; (endpoint: mean survival time, dose: 5.0 mg/kg/injection, schedule: Q01DX009 (ip), vehicle: saline with Tween-80) 153 % of control. Further, the T/C (endpoint: mean survival time, dose: 5.0 mg/kg/injection, schedule: Q01DX009 (ip), vehicle: water) was 113 % of control; the T/C (endpoint: mean survival time, dose: 5.0 mg/kg/injection, schedule: Q01DX009 (sc), vehicle: saline) is 123 % of control; the T/C (endpoint: mean survival time, dose: 6.0 mg/kg/injection, schedule: Q01DX009 (ip), vehicle: Klucel (hydroxypropylcellulose) (HPC)) was 150 % of control; the T/C (endpoint: mean survival time, dose: 6.25 mg/kg/injection, schedule: Q01DX009 (ip), vehicle: acetone) is 186 % of control; the T/C (endpoint: mean survival time, dose: 7.5 mg/kg/injection, schedule: Q04DX003 (ip), vehicle: other) was 156 % of control; the T/C (endpoint: mean survival time, dose: 8.0 mg/kg/injection, schedule: Q01DX009 (ip), vehicle: other) was 91 % of control. Further, the T/C is, setting by setting: (endpoint: mean survival time, dose: 8.4 mg/kg/injection, schedule: Q01DX009 (ip), vehicle: water) 89 % of control; (endpoint: mean survival time, dose: 10.0 mg/kg/injection, schedule: Q01DX009 (ip), vehicle: saline with Tween-80) 207 % of control; (endpoint: mean survival time, dose: 12.5 mg/kg/injection, schedule: Q01DX009 (ip), vehicle: acetone) 90 % of control; (endpoint: mean survival time, dose: 12.5 mg/kg/injection, schedule: Q01DX009 (ip), vehicle: saline with Tween-80) 93 % of control; (endpoint: mean survival time, dose: 12.5 mg/kg/injection, schedule: Q01DX009 (ip), vehicle: saline) 103 % of control; (endpoint: mean survival time, dose: 15.0 mg/kg/injection, schedule: Q04DX003 (ip), vehicle: other) 294 % of control. Further, the T/C (endpoint: mean survival time, dose: 18.75 mg/kg/injection, schedule: Q01DX001 (ip), vehicle: saline with Tween-80) was 160 % of control; the T/C (endpoint: mean survival time, dose: 25.0 mg/kg/injection, schedule: Q01DX001 (ip), vehicle: Klucel (hydroxypropylcellulose) (HPC)) is 152 % of control; the T/C (endpoint: mean survival time, dose: 30.0 mg/kg/injection, schedule: Q01DX001 (ip), vehicle: Klucel (hydroxypropylcellulose) (HPC)) is 254 % of control; the T/C (endpoint: mean survival time, dose: 30.0 mg/kg/injection, schedule: Q01DX001 (ip), vehicle: other) is 91 % of control; the T/C (endpoint: mean survival time, dose: 37.5 mg/kg/injection, schedule: Q01DX001 (ip), vehicle: saline with Tween-80) was 178 % of control and 270 % of control; the T/C (endpoint: mean survival time, dose: 45.0 mg/kg/injection, schedule: Q01DX001 (ip), vehicle: Klucel (hydroxypropylcellulose) (HPC)) is 160 % of control. For the same compound, the T/C is 158 % of control and 175 % of control (endpoint: mean survival time, dose: 50.0 mg/kg/injection, schedule: Q01DX001 (ip), vehicle: saline); 160 % of control and 255 % of control (endpoint: mean survival time, dose: 60.0 mg/kg/injection, schedule: Q01DX001 (ip), vehicle: Klucel (hydroxypropylcellulose) (HPC)); 202 % of control and 236 % of control under setting [1]; 232 % of control (endpoint: mean survival time, dose: 150.0 mg/kg/injection, schedule: Q01DX001 (ip), vehicle: saline with Tween-80); 121 % of control (endpoint: median survival time, dose: 1.0 mg/kg/injection, schedule: Q01DX009 (sc), vehicle: other); 102 % of control (endpoint: median survival time, dose: 2.0 mg/kg/injection, schedule: Q01DX009 (oral), vehicle: other). Further, the T/C (endpoint: median survival time, dose: 4.0 mg/kg/injection, schedule: Q01DX009 (oral), vehicle: other) is 109 % of control; the T/C (endpoint: median survival time, dose: 8.0 mg/kg/injection, schedule: Q01DX009 (oral), vehicle: other) was 120 % of control; the T/C (endpoint: median survival time, dose: 8.0 mg/kg/injection, schedule: Q01DX009 (sc), vehicle: other) was 98 % of control.

On to `CC(=O)N(O)CCCC1NC(=O)C(CCCN(O)C(C)=O)NC1=O` (stereo not given), for which the T/C reads like this: (endpoint: mean survival time, dose: 100.0 mg/kg/injection, schedule: Q01DX001 (ip), vehicle: saline) 97 % of control; (endpoint: mean survival time, dose: 100.0 mg/kg/injection, schedule: Q01DX009 (ip), vehicle: saline with Tween-80) 100 % of control; (endpoint: mean survival time, dose: 100.0 mg/kg/injection, schedule: Q04DX003 (ip), vehicle: saline with Tween-80) 92 % of control; (endpoint: mean survival time, dose: 200.0 mg/kg/injection, schedule: Q01DX001 (ip), vehicle: saline) 95 % of control; (endpoint: mean survival time, dose: 200.0 mg/kg/injection, schedule: Q01DX009 (ip), vehicle: saline with Tween-80) 102 % of control; (endpoint: mean survival time, dose: 200.0 mg/kg/injection, schedule: Q04DX003 (ip), vehicle: saline with Tween-80) 92 % of control. For the same compound, the T/C is, setting by setting: (endpoint: mean survival time, dose: 400.0 mg/kg/injection, schedule: Q01DX001 (ip), vehicle: saline) 95 % of control; (endpoint: mean survival time, dose: 400.0 mg/kg/injection, schedule: Q01DX009 (ip), vehicle: saline with Tween-80) 105 % of control; (endpoint: mean survival time, dose: 400.0 mg/kg/injection, schedule: Q04DX003 (ip), vehicle: saline with Tween-80) 100 % of control.

Turning to `NCCSCCc1ccccc1`, the T/C (endpoint: mean survival time, dose: 25.0 mg/kg/injection, schedule: Q04DX002 (ip), vehicle: saline with Tween-80) is 100 % of control and the T/C (endpoint: mean survival time, dose: 50.0 mg/kg/injection, schedule: Q04DX002 (ip), vehicle: saline with Tween-80) was 103 % of control.

With `CCCCNCCOC(=O)c1ccc(N)cc1`, the T/C under setting [1] is 106 % of control.

On to `CCn1c2ccccc2c2cc(NC(=O)N(CCCl)N=O)ccc21`, for which the T/C by setting is: (endpoint: mean survival time, dose: 177.0 mg/kg/injection, schedule: Q01DX009 (ip), vehicle: carboxymethylcellulose (CMC)) 121 % of control; (endpoint: mean survival time, dose: 266.0 mg/kg/injection, schedule: Q01DX009 (ip), vehicle: carboxymethylcellulose (CMC)) 188 % of control.

On to `CCCCOP(=S)(N1CCCCC1)N1CCCCC1`, for which the T/C reads like this: (endpoint: mean survival time, dose: 100.0 mg/kg/injection, schedule: Q04DX002 (ip), vehicle: saline with Tween-80) 96 % of control; (endpoint: mean survival time, dose: 200.0 mg/kg/injection, schedule: Q04DX002 (ip), vehicle: saline with Tween-80) 96 % of control; (endpoint: mean survival time, dose: 400.0 mg/kg/injection, schedule: Q04DX002 (ip), vehicle: saline with Tween-80) 107 % of control.

For `NC(Cc1ccccc1)c1ccccc1` (stereo not given) (tested in a mixture with another compound), the T/C by setting is: (endpoint: mean survival time, dose: 100.0 mg/kg/injection, schedule: Q04DX003 (ip), vehicle: saline) 89 % of control and 95 % of control; (endpoint: mean survival time, dose: 200.0 mg/kg/injection, schedule: Q04DX003 (ip), vehicle: saline) 89 % of control.

The record behind these values is PubChem BioAssay AID248 (DTP/NCI, 2004).
